In PMC10998830 (Communications Chemistry, 2024) one finds IC50 and Tm increase data, which are given here for two molecules.

The target of assay [1] is T1, AbATPPRT (Acinetobacter baumannii, UniProt A0A7U3XWM9).
T1 construct: gene hisG; hetero-octameric holoenzyme (two HisGS dimers flanking a HisZ tetramer) reconstituted in vitro from separately purified recombinant AbHisGS (E. coli BL21(DE3)) and AbHisZ; unlabelled (natural isotope abundance)
T1 sequence (A0A7U3XWM9 1-227): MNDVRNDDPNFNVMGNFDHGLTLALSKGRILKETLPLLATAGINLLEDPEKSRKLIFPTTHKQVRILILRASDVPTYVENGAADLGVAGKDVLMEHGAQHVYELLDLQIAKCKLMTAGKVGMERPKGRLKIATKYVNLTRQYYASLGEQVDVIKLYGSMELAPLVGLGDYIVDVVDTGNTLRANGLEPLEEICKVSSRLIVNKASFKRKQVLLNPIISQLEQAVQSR
T1 sequence (B2HWK9 1-388 partner): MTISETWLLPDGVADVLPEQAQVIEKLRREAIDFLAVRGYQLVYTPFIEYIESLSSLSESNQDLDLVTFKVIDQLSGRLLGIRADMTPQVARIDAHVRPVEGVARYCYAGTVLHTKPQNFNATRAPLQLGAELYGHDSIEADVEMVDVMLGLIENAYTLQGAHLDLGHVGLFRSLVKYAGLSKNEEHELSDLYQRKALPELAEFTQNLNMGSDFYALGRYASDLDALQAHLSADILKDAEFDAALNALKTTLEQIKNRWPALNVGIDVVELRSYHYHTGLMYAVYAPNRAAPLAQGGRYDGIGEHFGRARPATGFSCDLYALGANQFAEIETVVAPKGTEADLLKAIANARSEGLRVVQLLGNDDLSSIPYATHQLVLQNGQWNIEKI
Briefly: dose-response of initial rate, PRATP formation. Type of assay: biochemical.

In assay [2] the target is T1, AbATPPRT. Briefly: differential scanning fluorimetry, SYPRO Orange. Type of assay: binding. To be noted: 250 μM PRATP, 8 μM enzyme, pH 8.5, 15 mM MgCl2, 100 mM KCl; unlabelled enzyme. On the technique in general: Differential scanning fluorimetry follows unfolding on heating by fluorescence.

What is called IC50 is the point on the concentration scale where inhibition reaches its midpoint. A low value points to higher potency. Molecule `N[C@@H](Cc1c[nH]cn1)C(=O)O` [histidine] had an IC50 on AbATPPRT [1] of 93 ± 6 µM. On to `N=c1c2ncn([C@@H]3O[C@H](COP(=O)(O)OP(=O)(O)OP(=O)(O)O)[C@@H](O)[C@H]3O)c2ncn1[C@@H]1O[C@H](COP(=O)(O)O)[C@@H](O)[C@H]1O` [PRATP], for which, at AbATPPRT [2], the Tm increase result was “the presence of PRATP led only to marginal and mass-independent increases in Tm”.
